Experimental data reported in patent US6781015B2, “Aminobenzophenones and photopolymerizable compositions including the same” (Albemarle Corporation, priority 1997, dated 2004).
Values joined by “and” are separate entries in the source; they are usually repeats but may differ in a detail not shown here. Equal entries are not always repeated.

Columns and labels:
[1] = based on cancer studies in rats and mice; cited from earlier work
[2] = system: Salmonella typhimurium tester strain TA98; conditions: strain TA98 with added mammalian metabolic activation, adequate concentrations of test material; cited from earlier work
[3] = system: Salmonella typhimurium tester strain TA98; assay: Salmonella/Mammalian-Microsome Reverse Mutation Screening Assay (Ames Test); type: cell-based; design: key to Background lawn: 1 = normal; 2 = slightly reduced; 3 = moderately reduced; 4 = extremely reduced; 5 = absent; 6 = obscured by precipitate; sp = slight precipitate; mp = moderate precipitate (requires hand count); hp = heavy precipitate (requires hand count); conditions: for Individual plate counts, revertants per plate: plates 1-3
Method: Mutagenicity can be measured by a variety of assays. The most commonly used method is the Salmonella/Mammalian-Microsome Reverse Mutation Screening Assay (Ames Test), which commonly uses four or five strains of Salmonella bacteria to detect different types of mutations.
TMMK, TEMK and MEAB were evaluated for the ability to induce reverse mutations at the histidine locus in the genome of a specific Salmonella typhimurium tester strain in the presence of an exogenous metabolic activation system of mammalian microsomal enzymes derived from Aroclor™-induced rat liver (S9). The tester strain used in the mutagenicity assay was Salmonella typhimurium tester strain TA98 with added activation. The assay was conducted using eight doses of the test article, along with the appropriate vehicle and positive controls in the presence of S9 mix (S9 homogenate was purchased from Molecular Toxicology, Inc., Annapolis, Md. 21401, Batch 0646, 43.4 mg of protein per ml). Positive controls were also plated in the absence of S9 mix. All doses of test article, vehicle, and positive controls were plated in triplicate.
(§1) The test article TMMK was stored at room temperature. Acetone (CAS# 67-64-1, Fisher Scientific Co., Lot 961140) was used as the vehicle. At 20 mg per ml, which was the most concentrated stock solution which could be prepared, the test article formed a clear, light yellow solution. The test article remained a solution in all succeeding dilutions prepared for the mutagenicity assay. The maximum aliquot of acetone which can be used in the test system is 200 μl. Thus, the maximum concentration which could be tested was 4,000 μg per plate. The test article and vehicle controls were plated using a 200 μl plating aliquot. Positive control articles were plated using 50 μl plating aliquot.
(§2) The test article TEMK was stored at room temperature. Acetone (CAS# 67-64-1, Fisher Scientific Co., Lot 961140) was used as the vehicle. At 100 mg per ml, which was the most concentrated stock solution prepared, the test article formed a clear, yellow solution. The test article remained a solution in all succeeding dilutions prepared for the mutagenicity assay. The test article, vehicle controls and positive control articles were plated using a 50 μl plating aliquot.
as §2, with “MEAB” for “TEMK”, “(CAS#67-64-1,” for “(CAS# 67-64-1,”, “25” for “100”, “clear, light” for “clear,”, “article and” for “article,”, “were plated using a 200 μl plating aliquot. Positive” for “and positive”
The data are presented as individual plate counts along with a mean and standard deviation.

[4] = Most concentrated stock solution in acetone; type: physicochemical; conditions: clear, light yellow solution
Method: as §1

[5] = TA98, rat liver S9, 3.33 μg/plate
[6] = TA98, rat liver S9, 10.0 μg/plate
[7] = TA98, rat liver S9, 33.3 μg/plate
[8] = TA98, rat liver S9, 100 μg/plate
[9] = TA98, rat liver S9, 333 μg/plate
[10] = TA98, rat liver S9, 1000 μg/plate
[11] = TA98, rat liver S9, 3330 μg/plate
[12] = TA98, rat liver S9, 4000 μg/plate
[13] = tester strain TA98 in the presence of S9 mix

In the case of `CN(C)c1ccc(C(=O)c2ccc(N(C)C)cc2)cc1` [TMMK, 4,4′-bis(dimethylamino)benzophenone], the “National Toxicology Program carcinogen listing” value [1] is given as “reasonably anticipated to be a carcinogen”, the “Ames Test outcome in the literature” value [2] is given as “consistently found to have mutations” and the “Mean revertants per plate” value [3, 5] is given as 22 revertants per plate. For the same molecule, the “Individual plate counts, revertants per plate” value [3, 5] was 14 revertants per plate and 29 revertants per plate and 24 revertants per plate, the “Mean revertants per plate” value [3, 6] was 16 revertants per plate and the “Individual plate counts, revertants per plate” value [3, 6] was 9 revertants per plate and 19 revertants per plate (2×). For the same molecule, the “Mean revertants per plate” value [3, 7] was 31 revertants per plate, the “Individual plate counts, revertants per plate” value [3, 7] was 21 revertants per plate and 35 revertants per plate and 37 revertants per plate and the “Mean revertants per plate” value [3, 8] was 17 revertants per plate. The “Individual plate counts, revertants per plate” value [3, 8] was 16 revertants per plate and 12 revertants per plate and 22 revertants per plate, the “Mean revertants per plate” value [3, 9] was 18 revertants per plate and the “Individual plate counts, revertants per plate” value [3, 9] was 18 revertants per plate and 23 revertants per plate and 12 revertants per plate. For the same molecule, the “Mean revertants per plate” value [3, 10] was 31 revertants per plate, the “Individual plate counts, revertants per plate” value [3, 10] was 35 revertants per plate and 26 revertants per plate and 33 revertants per plate and the “Mean revertants per plate” value [3, 11] was 79 revertants per plate. For the same molecule, the “Individual plate counts, revertants per plate” value [3, 11] was 78 revertants per plate (2×) and 82 revertants per plate, the “Mean revertants per plate” value [3, 12] was 81 revertants per plate and the “Individual plate counts, revertants per plate” value [3, 12] was 80 revertants per plate and 70 revertants per plate and 93 revertants per plate. It also gave a Background lawn ([3]; Table 1, TA98, rat liver S9, 3.33 μg/plate) of 1, a Background lawn ([3]; Table 1, TA98, rat liver S9, 10.0 μg/plate) of 1 and a Background lawn ([3]; Table 1, TA98, rat liver S9, 33.3 μg/plate) of 1. It also gave a Background lawn ([3]; Table 1, TA98, rat liver S9, 100 μg/plate) of 1 sp, a Background lawn ([3]; Table 1, TA98, rat liver S9, 333 μg/plate) of 1 mp and a Background lawn ([3]; Table 1, TA98, rat liver S9, 1000 μg/plate) of 1 mp. For the same molecule, the Background lawn ([3]; Table 1, TA98, rat liver S9, 3330 μg/plate) was 6 mp, the Background lawn ([3]; Table 1, TA98, rat liver S9, 4000 μg/plate) was 6 mp and the Background lawn ([3]; Table 2 summary, TA98, rat liver S9, 3.33 μg/plate) was 1. It also gave a Background lawn ([3]; Table 2 summary, TA98, rat liver S9, 10.0 μg/plate) of 1, a Background lawn ([3]; Table 2 summary, TA98, rat liver S9, 33.3 μg/plate) of 1 and a Background lawn ([3]; Table 2 summary, TA98, rat liver S9, 100 μg/plate) of 1 sp. The Background lawn ([3]; Table 2 summary, TA98, rat liver S9, 333 μg/plate) was 1 mp, the Background lawn ([3]; Table 2 summary, TA98, rat liver S9, 1000 μg/plate) was 1 mp and the Background lawn ([3]; Table 2 summary, TA98, rat liver S9, 3330 μg/plate) was 6 mp. The Background lawn ([3]; Table 2 summary, TA98, rat liver S9, 4000 μg/plate) was 6 mp, the “Ames Test outcome (mutagenicity)” value [3, 13] was “mutagenic” and the “Increase in the number of revertants per plate” value [3, 13] was 3.9 fold. The “Most concentrated stock solution which could be prepared” value [4] was 20 mg per ml.
